The structures appear in SMILES notation.

In test [1] the test system is MOLM-13. As to the kind of experiment: Secondary dose-response HTS, Cell Titer Glo. The format is cell-based, human. As to conditions: Homo sapiens; secondary high-throughput screen; MOLM-13; read-out: average effective concentration, MOLM-13. (In general: In ATP-based viability assays light output follows the ATP content of the culture.)
Test [2] relates to MV4-11. Put plainly: Secondary dose-response HTS, Cell Titer Glo. The format is cell-based, human. As to conditions: Homo sapiens; secondary high-throughput screen; MV4-11; read-out: average effective concentration, MV4-11.
In test [3] the test system is CMK. As to the kind of experiment: Secondary dose-response HTS, Cell Titer Glo. The note with it: Homo sapiens, CMK, read-out: average effective concentration, CMK. The format is cell-based, human.
For test [4], the system named is CHRF288-11. Put plainly: cells. Details: species or system AML cell lines (8); Secondary HTS, 10-point dose-response in triplicate, Cell Titer Glo viability, four-parameter fit EC50. The note with it: 72 h, read-out: CHRF288-11.
In another test the test system is CMS. Put plainly: cells. Also on record: species or system AML cell lines (8); Secondary HTS, 10-point dose-response in triplicate, Cell Titer Glo viability, four-parameter fit EC50. As to conditions: 72 h, read-out: CMS.
The test system of another test is M07e. Put plainly: cells. The note with it: M-07e, 72 h, read-out: M07e. Details: species or system AML cell lines (8); Secondary HTS, 10-point dose-response in triplicate, Cell Titer Glo viability, four-parameter fit EC50.
For a further test, the system named is ML-2. Put plainly: cells. Details: species or system AML cell lines (8); Secondary HTS, 10-point dose-response in triplicate, Cell Titer Glo viability, four-parameter fit EC50. The note with it: Homo sapiens, ML-2, 72 h, read-out: ML-2.
Test [5] has as its system U937. Put plainly: cells. Also on record: species or system AML cell lines (8); Secondary HTS, 10-point dose-response in triplicate, Cell Titer Glo viability, four-parameter fit EC50. As to conditions: Homo sapiens, U-937, 72 h, read-out: U937.
The subject of test [6] is U937. Put plainly: Secondary dose-response HTS, Cell Titer Glo. The format is cell-based, human. The note with it: Homo sapiens.
Test [7] deals with MOLM-13. Put plainly: cells. The note with it: Homo sapiens, MOLM-13, 72 h, read-out: MOLM-13. Also on record: species or system AML cell lines (8); Secondary HTS, 10-point dose-response in triplicate, Cell Titer Glo viability, four-parameter fit EC50.
Test [8] deals with MV4-11. Put plainly: cells. Also on record: species or system AML cell lines (8); Secondary HTS, 10-point dose-response in triplicate, Cell Titer Glo viability, four-parameter fit EC50. The note with it: Homo sapiens, MV4-11, 72 h, read-out: MV4-11.
In test [9] the test system is CMK. As to the kind of experiment: cells. The note with it: Homo sapiens, CMK, 72 h, read-out: CMK. Also on record: species or system AML cell lines (8); Secondary HTS, 10-point dose-response in triplicate, Cell Titer Glo viability, four-parameter fit EC50.
Test [10] concerns CHRF288-11. As to the kind of experiment: Secondary dose-response HTS, Cell Titer Glo. The format is cell-based, human. The note with it: Homo sapiens, HTS; secondary high-throughput screen; CHRF288-11; read-out: average effective concentration, CHRF288-11.
Where [11] appears, read: secondary high-throughput screen.
[12] abbreviates: U-937, secondary high-throughput screen, U937, read-out: average effective concentration, U937.

In the case of `COc1cc2nccc(Oc3ccc(NC(=O)C4(C(=O)Nc5ccc(F)cc5)CC4)cc3)c2cc1OC` [CABOZANTINIB], the EC50 in the test with MOLM-13 [1] is 0.05 µM; in the test with MV4-11 [2], 0.001 µM; in the test with CMK [3] (setting [11]) it was 7.3 µM; with CHRF288-11 [4] it was over 10 µM; with CMS, over 10 µM; with M07e, over 10 µM. In addition, the EC50 in the test on ML-2 and with U937 [5] was over 10 µM in each case.

As to `C=CC(=O)N1CCC[C@@H](n2nc(-c3ccc(Oc4ccccc4)cc3)c3c(N)ncnc32)C1` [Ibrutinib], the EC50 in the test with CHRF288-11 [4], with M07e and with ML-2 was over 10 µM in each case.

Turning to `Cn1cncc1[C@@](N)(c1ccc(Cl)cc1)c1ccc2c(c1)c(-c1cccc(Cl)c1)cc(=O)n2C` [TIPIFARNIB], the EC50 in the test with CMK [3] was 1.4 µM; with U937 [6] (U-937, read-out: average effective concentration, U937), 0.54 µM; in the test on MOLM-13 [7] it was over 10 µM; in the test on MV4-11 [8], over 10 µM; in the test on CHRF288-11 [4] it was over 10 µM; in the test on CMS, over 10 µM. Also, the EC50 in the test with M07e and in the test on ML-2 was over 10 µM each time.

With `Nc1ncnc2c1ncn2[C@@H]1C=C(CO)[C@@H](O)[C@H]1O` [SJ000784248, NEPLANOCIN A], the EC50 was 0.36 µM in the test on MOLM-13 [7]; over 10 µM in the test with MV4-11 [8]; 6.5 µM with CHRF288-11 [4]; over 10 µM in the test with CMS; over 10 µM in the test on M07e; 5.8 µM in the test on ML-2. Further, in the test on U937 [5], the EC50 came out at 1.1 µM.

As to `Cc1ncc(CNC(=O)N(CCCl)N=O)c(N)n1` [NIMUSTINE], the EC50 with CMK [3] (setting [11]) was 10 µM; in the test on MOLM-13 [7], over 10 µM; in the test with MV4-11 [8], over 10 µM; with CHRF288-11 [4], over 10 µM; with CMS it was over 10 µM; in the test on M07e it was over 10 µM. Further, the EC50 in the test with ML-2 and in the test with U937 [5] was over 10 µM in each case.

In the case of `COc1cc2c(Nc3ccc(Br)cc3F)ncnc2cc1OCC1CCN(C)CC1` [VANDETANIB], the EC50 is 10 µM in the test on MOLM-13 [1]; 5.8 µM in the test on CMK [3]; over 10 µM in the test on MV4-11 [8]; over 10 µM with CHRF288-11 [4]; over 10 µM with CMS; over 10 µM in the test on M07e. Further, the EC50 in the test on ML-2 and in the test with U937 [5] was over 10 µM in each case.

Regarding `O=C(O)CNC(=O)C(=O)O` [N-OXALYLGLYCINE], the EC50 was 2.3 µM in the test with MOLM-13 [1]; 3.3 µM with U937 [6] (setting [12]); over 10 µM in the test on MV4-11 [8]; over 10 µM in the test with CHRF288-11 [4]; over 10 µM in the test on CMS; over 10 µM in the test with M07e. Besides, the EC50 in the test with ML-2 was over 10 µM.

As for `CC(=O)c1c(C)c2cnc(Nc3ccc(N4CCNCC4)cn3)nc2n(C2CCCC2)c1=O` [Palbociclib], the EC50 in the test on MOLM-13 [7], in the test with MV4-11 [8], in the test with CHRF288-11 [4], in the test on M07e and in the test on ML-2 was over 10 µM in each case.

For the molecule `CCC(C)n1ncn(-c2ccc(N3CCN(c4ccc(OCC5COC(Cn6cncn6)(c6ccc(Cl)cc6Cl)O5)cc4)CC3)cc2)c1=O` (centres unmarked) [ITRACONAZOLE], the EC50 in the test with CMK [3] (setting [11]) was 6.4 µM; with MOLM-13 [7] it was over 10 µM; in the test with MV4-11 [8] it was over 10 µM; in the test with CHRF288-11 [4], over 10 µM; in the test with CMS it was over 10 µM; in the test on M07e, over 10 µM. In addition, the EC50 with ML-2 and in the test on U937 [5] was over 10 µM throughout.

`Nc1nccc2c1ncn2[C@@H]1C=C(CO)[C@@H](O)[C@H]1O` [SJ000785904, 3-DEAZANEPLANOCIN]: the EC50 in the test on MOLM-13 [7] is 0.19 µM; in the test with MV4-11 [8] it was over 10 µM; in the test with CHRF288-11 [4], 1.8 µM; in the test with CMS, over 10 µM; with M07e it was 0.001 µM; with ML-2, over 10 µM. The EC50 with U937 [5] was over 10 µM.

On to `N[C@@H]1C[C@H]1c1ccccc1` (racemic) [SJ000286124, TRANYLCYPROMINE], for which the EC50 in the test with MOLM-13 [7], with MV4-11 [8], in the test on CHRF288-11 [4], in the test on CMS, in the test with M07e and in the test with ML-2 was over 10 µM throughout. Besides, the EC50 in the test with U937 [5] is over 10 µM.

Take `N[C@@H]1C[C@H]1c1cc(F)cc(F)c1OCc1ccccc1` [SJ000785902, S2101]: the EC50 with MOLM-13 [7], in the test with MV4-11 [8], in the test on CHRF288-11 [4], in the test with CMS, in the test on M07e and in the test with ML-2 was over 10 µM throughout. For the same molecule, the EC50 with U937 [5] is over 10 µM.

As for `COc1cc(CCc2cc(NC(=O)c3ccc(N4C[C@@H](C)N[C@@H](C)C4)cc3)n[nH]2)cc(OC)c1` [AZD4547], the EC50 in the test on CHRF288-11 [4], with CMS, in the test on M07e, in the test on ML-2 and in the test with U937 [5] was over 10 µM each time.

With `CC(C(=O)Nc1cccc(/N=C/c2c(O)ccc3ccccc23)c1)c1ccccc1` (centres unmarked) [SALERMIDE], the EC50 in the test with MOLM-13 [1] was 7 µM; with U937 [6] (setting [12]) it was 6.6 µM; in the test with MV4-11 [8] it was over 10 µM; in the test on CHRF288-11 [4] it was over 10 µM; in the test on CMK [9], over 10 µM; in the test with CMS, over 10 µM. The EC50 in the test with M07e and in the test on ML-2 was over 10 µM each time.

With `CN(C)C1CCN(C(=O)c2ccc(NC(=O)Nc3ccc(-c4nc(N5CCOCC5)nc(N5CCOCC5)n4)cc3)cc2)CC1` [SJ000784327, PF-05212384], the EC50 in the test on CHRF288-11 [4], in the test on CMS, in the test with M07e and with ML-2 was over 10 µM each time.

On to `CC(=O)O[C@H]1CC[C@@]2(C)C(=CC[C@@H]3[C@@H]2CC[C@]2(C)C(c4cccnc4)=CC[C@@H]32)C1` [ABIRATERONE ACETATE], for which the EC50 is 5.3 µM in the test with CMK [3] (setting [11]); over 10 µM in the test on MOLM-13 [7]; over 10 µM in the test with MV4-11 [8]; over 10 µM in the test with CHRF288-11 [4]; over 10 µM in the test with CMS; over 10 µM in the test on M07e. Also, the EC50 with ML-2 and in the test on U937 [5] was over 10 µM each time.

As for `Cn1c(=O)n(-c2ccc(C(C)(C)C#N)cc2)c2c3cc(-c4cnc5ccccc5c4)ccc3ncc21` [DACTOLISIB], the EC50 in the test on CMK [3] (setting [11]) is 0.066 µM; in the test on MOLM-13 [7], over 10 µM; with MV4-11 [8] it was over 10 µM; in the test on CHRF288-11 [4], over 10 µM; in the test with CMS, over 10 µM; with M07e, over 10 µM. Further, the EC50 with ML-2 and in the test on U937 [5] was over 10 µM each time.

For `CC(C)c1c(C(=O)Nc2ccccc2)c(-c2ccccc2)c(-c2ccc(F)cc2)n1CC[C@@H](O)C[C@@H](O)CC(=O)O` [ATORVASTATIN], the EC50 in the test with MOLM-13 [1], with MV4-11 [2], with CHRF288-11 [10], in the test on U937 [6] (setting [12]), in the test with CMK [9] and in the test on CMS was over 10 µM each time. Further, the EC50 in the test on M07e and in the test on ML-2 was over 10 µM each time.

Turning to `C=C(c1ccc(C(=O)O)cc1)c1cc2c(cc1C)C(C)(C)CCC2(C)C` [BEXAROTENE], the EC50 in the test on MV4-11 [2] is 2.1 µM; with CMK [3] (setting [11]) it was 8.1 µM; with MOLM-13 [7] it was over 10 µM; with CHRF288-11 [4], over 10 µM; in the test on CMS, over 10 µM; in the test with M07e, over 10 µM. Besides, the EC50 in the test with ML-2 and in the test with U937 [5] was over 10 µM throughout.

Consider `Cn1cc(CNCC2CCN(c3ncc(C(=O)NO)cn3)CC2)c2ccccc21` [Quisinostat], for which the EC50 came to 0.0042 µM in the test on M07e, 0.00387 µM with ML-2 and 0.0052 µM with U937 [5].

Turning to `NC(=O)c1ccc(I)c([N+](=O)[O-])c1` [INIPARIB], the EC50 in the test on MOLM-13 [1], in the test on MV4-11 [8], with CHRF288-11 [4], with CMS, in the test with M07e and with ML-2 was over 10 µM throughout. For the same molecule, the EC50 in the test with U937 [5] was over 10 µM.

Turning to `CS(=O)(=O)N1CCN(Cc2cc3nc(-c4cccc5[nH]ncc45)nc(N4CCOCC4)c3s2)CC1` [Pictilisib], the EC50 in the test with MOLM-13 [7], in the test with MV4-11 [8], with CHRF288-11 [4], in the test on CMS, with M07e and with ML-2 was over 10 µM in each case. Further, the EC50 with U937 [5] is over 10 µM.
